In patent US20200319197A1, “Biomarkers of Preterm Birth” (Carmentix PTE. Ltd., priority 2017, published 2020):
Where two headings read alike, the source gives them in different places.

Columns and labels:
ECM1 [1] = test: ECM1 in medium of Ect1 post-LPS treatment, ELISA; type: cell-based; details: 24 h, vs control untreated cells, ± SEM
Procedure: (§1) At Day 1, cell culture was removed and substituted with KSFM without growth factor supplement. Cells were then treated with increasing doses of LPS (10 μg/ml, 25 μg/ml, 50 μg/ml) at Day 2.

GGH [2] = test: GGH in medium of Ect1 post-LPS treatment, ELISA; type: cell-based; details: for Fold change GGH expression: 24 h, vs control untreated cells, ± SEM
Procedure: as §1

FGA [3] = test: FGA in medium of Ect1 post-LPS treatment, ELISA; type: cell-based; details: for Fold change FGA expression: 24 h, vs control untreated cells, ± SEM
Procedure: as §1

LAMC2 [4] = test: LAMC2 in medium of Ect1 post-LPS treatment, ELISA; type: cell-based; details: Ect1, 50 μg/ml LPS, 24 h, vs control untreated cells, ± SEM
Procedure: as §1

ECM1 [5] = test: ECM1 in medium of End1 post-LPS treatment, ELISA; type: cell-based; details: for Fold change ECM1 expression: 24 h, vs control untreated cells, ± SEM
Procedure: as §1

GGH [6] = test: GGH in medium of End1 post-LPS treatment, ELISA; type: cell-based; details: for Fold change GGH expression: 24 h, vs control untreated cells, ± SEM
Procedure: as §1

FGA [7] = test: FGA in medium of End1 post-LPS treatment, ELISA; type: cell-based; details: for Fold change FGA expression: 24 h, vs control untreated cells, ± SEM
Procedure: as §1

LAMC2 [8] = test: LAMC2 in medium of End1 post-LPS treatment, ELISA; type: cell-based; details: 24 h, vs control untreated cells, ± SEM
Procedure: as §1

End1 cells = details: MTT, vs untreated control; for decrease in cell viability: significant
ECM1 [9] = details: Ect1, 200 μM H2O2, 24 h, vs control untreated cells, ± SEM
FGA [10] = details: End1, 100 μM H2O2, 24 h, vs control untreated cells, ± SEM
EFEMP1 = details: End1, 100 μM H2O2, 24 h, vs control untreated cells, ± SEM
GGH [11] = test: GGH in medium of Ect1 post-H2O2 treatment, ELISA; details: for Fold change GGH expression: vs control untreated cells, ± SEM
GGH [12] = test: GGH in medium of End1 post-H2O2 treatment, ELISA; details: vs control untreated cells, ± SEM
ECM1 [13] = test: ECM1 in medium of End1 post-H2O2 treatment, ELISA; details: vs control untreated cells, ± SEM
LAMC2 [14] = test: LAMC2 in medium of End1 post-H2O2 treatment, ELISA; details: vs control untreated cells, ± SEM
Ect1 cells = test: MTT assay, cell viability and proliferation after H2O2 treatment, Ect1; details: vs untreated control
[15] = Ect1, 3 different doses of LPS, statistically insignificant
[16] = End1, LPS treatment, dose not specified

## Lipopolysaccharide [LPS]
ECM1 [1]; Ect1, 10 μg/ml LPS
  Fold change ECM1 expression: 0.87 ± 0.18 fold
ECM1 [1]; Ect1, 50 μg/ml LPS
  Fold change ECM1 expression: 0.81 ± 0.17 fold
GGH [2]; Ect1, 10 μg/ml LPS
  Fold change GGH expression: 1.67 ± 0.40 fold
GGH [2]; Ect1, 25 μg/ml LPS
  Fold change GGH expression: 1.42 ± 0.23 fold
GGH [2]; Ect1, 50 μg/ml LPS
  Fold change GGH expression: 1.80 ± 0.52 fold
GGH [2]; [15]
  GGH expression in conditioned media: slight increases
FGA [3]; Ect1, 10 μg/ml LPS
  Fold change FGA expression: 1.05 ± 0.15 fold
FGA [3]; Ect1, 25 μg/ml LPS
  Fold change FGA expression: 1.13 ± 0.12 fold
FGA [3]; Ect1, 50 μg/ml LPS
  Fold change FGA expression: 1.19 ± 0.22 fold
FGA [3]; [15]
  FGA expression in conditioned media: slight increases
LAMC2 [4]
  Fold change LAMC2 expression: 5.99 ± 1.86 fold
ECM1 [5]; End1, 10 μg/ml LPS
  Fold change ECM1 expression: 0.94 ± 0.14 fold
ECM1 [5]; End1, 25 μg/ml LPS
  Fold change ECM1 expression: 0.87 ± 0.11 fold
ECM1 [5]; End1, 50 μg/ml LPS
  Fold change ECM1 expression: 0.76 ± 0.11 fold
ECM1 [5]; End1, LPS treatment, dose not specified, statistically insignificant
  ECM1 expression in conditioned media: small decrease
GGH [6]; End1, 10 μg/ml LPS
  Fold change GGH expression: 0.69 ± 0.15 fold
GGH [6]; End1, 25 μg/ml LPS
  Fold change GGH expression: 0.92 ± 0.19 fold
GGH [6]; End1, 50 μg/ml LPS
  Fold change GGH expression: 0.76 ± 0.13 fold
GGH [6]; [16]
  GGH expression level in conditioned media: down-regulated
FGA [7]; End1, 10 μg/ml LPS
  Fold change FGA expression: 0.90 ± 0.10 fold
FGA [7]; End1, 25 μg/ml LPS
  Fold change FGA expression: 0.92 ± 0.15 fold
FGA [7]; End1, 50 μg/ml LPS
  Fold change FGA expression: 0.78 ± 0.10 fold
FGA [7]; [16]
  FGA expression level in conditioned media: down-regulated
LAMC2 [8]; End1, 10 μg/ml LPS
  Fold change LAMC2 expression: ~8 fold
LAMC2 [8]; End1, 25 μg/ml LPS
  Fold change LAMC2 expression: ~8 fold
LAMC2 [8]; End1, 50 μg/ml LPS
  Fold change LAMC2 expression: ~8 fold

## OO [H2O2, Hydrogen peroxide]
End1 cells; 50 μM H2O2, 24 h
  effect on cell viability: no effect
End1 cells; 100 μM H2O2, 24 h
  decrease in cell viability: ~20%
End1 cells; 200 μM H2O2, 24 h
  decrease in cell viability: ~50%
End1 cells; 400 μM H2O2, 24 h
  decrease in cell viability: ~90%
ECM1 [9]
  Fold change ECM1 expression: 1.09 ± 0.21 fold
FGA [10]
  Fold change FGA expression: 0.96 ± 0.21 fold
EFEMP1
  Fold change EFEMP1 expression: 0.73 ± 0.12 fold
GGH [11]; Ect1, 200 μM H2O2, 24 h
  Fold change GGH expression: 0.73 ± 0.16 fold
GGH [11]; Ect1, 400 μM H2O2, 24 h
  Fold change GGH expression: 1.01 ± 0.25 fold
GGH [11]; Ect1, H2O2 24 h, dose not given
  GGH expression upon H2O2 treatment: remained relatively unchanged
GGH [12]; End1, 100 μM H2O2, 24 h
  Fold change GGH expression: 0.75 ± 0.16 fold
GGH [12]; End1, 200 μM H2O2, 24 h
  Fold change GGH expression: 0.86 ± 0.18 fold
ECM1 [13]; End1, 100 μM H2O2, 24 h
  Fold change ECM1 expression: 1.02 ± 0.16 fold
ECM1 [13]; End1, 200 μM H2O2, 24 h
  Fold change ECM1 expression: 0.90 ± 0.07 fold
LAMC2 [14]; End1, 100 μM H2O2, 24 h
  Fold change LAMC2 expression: 1.15 ± 0.17 fold
LAMC2 [14]; End1, 200 μM H2O2, 24 h
  Fold change LAMC2 expression: 0.95 ± 0.16 fold
Ect1 cells; 50 μM H2O2, 24 h
  effect on cell viability: did not affect cell viability
Ect1 cells; 100 μM H2O2, 24 h
  effect on cell viability: did not affect cell viability
Ect1 cells; 200 μM H2O2, 24 h, not statistically significant
  decrease in cell density: 20%
Ect1 cells; 400 μM H2O2, 24 h, significant
  decrease in cell viability: ~50%
